# Measured values reported in PubChem BioAssay AID2060884 (Molecular Pharmacology Branch, DTP, NCI, 2025).
# Several values for one entry are separate records, joined by “and”; a condition that tells them apart may be missing. Equal values may be shown once.
# System: NCI-H929 complex spheroids, viability % test/control
# Test: Anticancer human tumor NCI-H929 cell line growth inhibition [RAS];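 note: compound exposure lasted seven days before viability was read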;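 for viability, T/C: 100% = DMSO vehicle control viability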
# Settings: for viability, T/C: stronger effect = lower value
# Method in brief: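 Multi-cell-type spheroids: tumor cells plus HUVEC endothelial cells and mesenchymal stem cells. RAS-pathway inhibitors were combined with targeted agents, each dosed in half-log steps down from clinical Cmax, or from 10 microM when Cmax was unknown.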
# [1] = curve of first compound, second compound 0.000949 µM
# [2] = curve of first compound, second compound 0.003 µM
# [3] = curve of first compound, second compound 0.00949 µM
# [4] = curve of first compound, second compound 0.03 µM
# [5] = curve of first compound, second compound 0.0949 µM
# [6] = curve of first compound, second compound 0.3 µM
# [7] = second compound 0.000949 µM, first compound 0.00316 µM
# [8] = second compound 0.000949 µM, first compound 0.01 µM
# [9] = second compound 0.000949 µM, first compound 0.0316 µM
# [10] = second compound 0.000949 µM, first compound 0.1 µM
# [11] = second compound 0.000949 µM, first compound 0.316 µM
# [12] = second compound 0.000949 µM, first compound 1 µM
# [13] = second compound 0.003 µM, first compound 0.00316 µM
# [14] = second compound 0.003 µM, first compound 0.01 µM
# [15] = second compound 0.003 µM, first compound 0.0316 µM
# [16] = second compound 0.003 µM, first compound 0.1 µM
# [17] = second compound 0.003 µM, first compound 0.316 µM
# [18] = second compound 0.003 µM, first compound 1 µM
# [19] = second compound 0.00949 µM, first compound 0.00316 µM
# [20] = second compound 0.00949 µM, first compound 0.01 µM
# [21] = second compound 0.00949 µM, first compound 0.0316 µM
# [22] = second compound 0.00949 µM, first compound 0.1 µM
# [23] = second compound 0.00949 µM, first compound 0.316 µM
# [24] = second compound 0.00949 µM, first compound 1 µM
# [25] = second compound 0.03 µM, first compound 0.00316 µM
# [26] = second compound 0.03 µM, first compound 0.01 µM
# [27] = second compound 0.03 µM, first compound 0.0316 µM
# [28] = second compound 0.03 µM, first compound 0.1 µM
# [29] = second compound 0.03 µM, first compound 0.316 µM
# [30] = second compound 0.03 µM, first compound 1 µM
# [31] = second compound 0.0949 µM, first compound 0.00316 µM
# [32] = second compound 0.0949 µM, first compound 0.01 µM
# [33] = second compound 0.0949 µM, first compound 0.0316 µM
# [34] = second compound 0.0949 µM, first compound 0.1 µM
# [35] = second compound 0.0949 µM, first compound 0.316 µM
# [36] = second compound 0.0949 µM, first compound 1 µM
# [37] = second compound 0.3 µM, first compound 0.00316 µM
# [38] = second compound 0.3 µM, first compound 0.01 µM
# [39] = second compound 0.3 µM, first compound 0.0316 µM
# [40] = second compound 0.3 µM, first compound 0.1 µM
# [41] = second compound 0.3 µM, first compound 0.316 µM
# [42] = second compound 0.3 µM, first compound 1 µM
compound,measurement,setting,value
CC1(C)CCC(Nc2ncc(C(F)(F)F)c(-c3c[nH]c4c(P(C)(C)=O)c(C#N)ccc34)n2)CN1 (stereo not drawn) + C=CC(=O)N1CCN(c2nc(OCC3CCCN3C)nc3c(F)c(-c4nc(N)cc(C)c4C(F)(F)F)c(Cl)cc23)C(C)C1,IC50,"curve of first compound, second compound 0.00316 µM",5.68 nM
same,IC50,"curve of first compound, second compound 0.01 µM",6.25 nM
same,IC50,"curve of first compound, second compound 0.0316 µM",6.33 nM
same,IC50,"curve of first compound, second compound 0.1 µM",6.39 nM
same,IC50,"curve of first compound, second compound 0.316 µM",6.5 nM
same,IC50,"curve of first compound, second compound 1 µM",6.68 nM
same,"viability, T/C","second compound 0.00316 µM, first compound 0.000949 µM",128%
same,"viability, T/C","second compound 0.00316 µM, first compound 0.003 µM",92.7%
same,"viability, T/C","second compound 0.00316 µM, first compound 0.00949 µM",15.7%
same,"viability, T/C","second compound 0.00316 µM, first compound 0.03 µM",9.6%
same,"viability, T/C","second compound 0.00316 µM, first compound 0.0949 µM",8.73%
same,"viability, T/C","second compound 0.00316 µM, first compound 0.3 µM",5.5%
same,"viability, T/C","second compound 0.01 µM, first compound 0.000949 µM",125%
same,"viability, T/C","second compound 0.01 µM, first compound 0.003 µM",109%
same,"viability, T/C","second compound 0.01 µM, first compound 0.00949 µM",16.1%
same,"viability, T/C","second compound 0.01 µM, first compound 0.03 µM",12.3%
same,"viability, T/C","second compound 0.01 µM, first compound 0.0949 µM",9.77%
same,"viability, T/C","second compound 0.01 µM, first compound 0.3 µM",5.17%
same,"viability, T/C","second compound 0.0316 µM, first compound 0.000949 µM",125%
same,"viability, T/C","second compound 0.0316 µM, first compound 0.003 µM",111%
same,"viability, T/C","second compound 0.0316 µM, first compound 0.00949 µM",16.7%
same,"viability, T/C","second compound 0.0316 µM, first compound 0.03 µM",11.4%
same,"viability, T/C","second compound 0.0316 µM, first compound 0.0949 µM",7.81%
same,"viability, T/C","second compound 0.0316 µM, first compound 0.3 µM",5.16%
same,"viability, T/C","second compound 0.1 µM, first compound 0.000949 µM",123%
same,"viability, T/C","second compound 0.1 µM, first compound 0.003 µM",114%
same,"viability, T/C","second compound 0.1 µM, first compound 0.00949 µM",16.6%
same,"viability, T/C","second compound 0.1 µM, first compound 0.03 µM",11.9%
same,"viability, T/C","second compound 0.1 µM, first compound 0.0949 µM",7.35%
same,"viability, T/C","second compound 0.1 µM, first compound 0.3 µM",5.2%
same,"viability, T/C","second compound 0.316 µM, first compound 0.000949 µM",129%
same,"viability, T/C","second compound 0.316 µM, first compound 0.003 µM",114%
same,"viability, T/C","second compound 0.316 µM, first compound 0.00949 µM",18.5%
same,"viability, T/C","second compound 0.316 µM, first compound 0.03 µM",9.66%
same,"viability, T/C","second compound 0.316 µM, first compound 0.0949 µM",8.16%
same,"viability, T/C","second compound 0.316 µM, first compound 0.3 µM",5.67%
same,"viability, T/C","second compound 1 µM, first compound 0.000949 µM",132%
same,"viability, T/C","second compound 1 µM, first compound 0.003 µM",125%
same,"viability, T/C","second compound 1 µM, first compound 0.00949 µM",17%
same,"viability, T/C","second compound 1 µM, first compound 0.03 µM",13.4%
same,"viability, T/C","second compound 1 µM, first compound 0.0949 µM",9.36%
same,"viability, T/C","second compound 1 µM, first compound 0.3 µM",6.92%
Nc1ccn(C2OC(CO)C(O)C2(F)F)c(=O)n1 (stereo not drawn) + CCn1c(-c2cc(N3CCN(C)CC3)cnc2C(C)OC)c2c3cc(ccc31)-c1csc(n1)CC(NC(=O)C1CC1C)C(=O)N1CCCC(N1)C(=O)OCC(C)(C)C2,IC50,[1],7.3 nM
same,IC50,[2],6.69 nM
same,IC50,[3],6.61 nM
same,IC50,[4],< 3.16 nM
same,IC50,[5],< 3.16 nM
same,IC50,[6],< 3.16 nM
same,"viability, T/C",[7],110%
same,"viability, T/C",[8],27.6%
same,"viability, T/C",[9],2.05%
same,"viability, T/C",[10],2.16%
same,"viability, T/C",[11],1.6%
same,"viability, T/C",[12],1.6%
same,"viability, T/C",[13],105%
same,"viability, T/C",[14],20.4%
same,"viability, T/C",[15],2.07%
same,"viability, T/C",[16],1.75%
same,"viability, T/C",[17],1.35%
same,"viability, T/C",[18],1.62%
same,"viability, T/C",[19],127%
same,"viability, T/C",[20],6.62%
same,"viability, T/C",[21],1.99%
same,"viability, T/C",[22],2.73%
same,"viability, T/C",[23],1.58%
same,"viability, T/C",[24],1.35%
same,"viability, T/C",[25],15.2%
same,"viability, T/C",[26],3.12%
same,"viability, T/C",[27],1.8%
same,"viability, T/C",[28],1.5%
same,"viability, T/C",[29],1.42%
same,"viability, T/C",[30],1.24%
same,"viability, T/C",[31],2.68%
same,"viability, T/C",[32],1.67%
same,"viability, T/C",[33],1.66%
same,"viability, T/C",[34],1.4%
same,"viability, T/C",[35],1.18%
same,"viability, T/C",[36],1.05%
same,"viability, T/C",[37],1.41%
same,"viability, T/C",[38],1.1%
same,"viability, T/C",[39],1.1%
same,"viability, T/C",[40],1.32%
same,"viability, T/C",[41],1.02%
same,"viability, T/C",[42],0.86%
Nc1ccn(C2OC(CO)C(O)C2(F)F)c(=O)n1 (stereo not drawn) + CCn1c(-c2cccnc2C(C)OC)c2c3cc(ccc31)N1CCOC(CC(NC(=O)C(C(C)C)N(C)C(=O)C3(F)CCN(C(=O)C#CC(C)(C)N(C)C)CC3)C(=O)N3CCCC(N3)C(=O)OCC(C)(C)C2)C1,IC50,[1],6.16 nM
same,IC50,[2],6.22 nM
same,IC50,[3],5.72 nM
same,IC50,[4],5.97 nM
same,IC50,[5],5.49 nM
same,IC50,[6],5.79 nM
same,"viability, T/C",[7],105%
same,"viability, T/C",[8],10.1%
same,"viability, T/C",[9],0.99%
same,"viability, T/C",[10],0.68%
same,"viability, T/C",[11],0.75%
same,"viability, T/C",[12],0.74%
same,"viability, T/C",[13],103%
same,"viability, T/C",[14],12.8%
same,"viability, T/C",[15],0.86%
same,"viability, T/C",[16],0.83%
same,"viability, T/C",[17],0.91%
same,"viability, T/C",[18],0.96%
same,"viability, T/C",[19],96.3%
same,"viability, T/C",[20],6.3%
same,"viability, T/C",[21],1.25%
same,"viability, T/C",[22],0.77%
same,"viability, T/C",[23],0.75%
same,"viability, T/C",[24],0.72%
same,"viability, T/C",[25],99.8%
same,"viability, T/C",[26],9.61%
same,"viability, T/C",[27],1.21%
same,"viability, T/C",[28],0.91%
same,"viability, T/C",[29],0.88%
same,"viability, T/C",[30],0.89%
same,"viability, T/C",[31],92.5%
same,"viability, T/C",[32],3.76%
same,"viability, T/C",[33],1.08%
same,"viability, T/C",[34],0.91%
same,"viability, T/C",[35],0.76%
same,"viability, T/C",[36],0.75%
same,"viability, T/C",[37],103%
same,"viability, T/C",[38],2.46%
same,"viability, T/C",[39],1.01%
same,"viability, T/C",[40],0.96%
same,"viability, T/C",[41],0.99%
same,"viability, T/C",[42],0.8%
C=CC(=O)Nc1cc(Nc2nccc(-c3cn(C)c4ccccc34)n2)c(OC)cc1N(C)CCN(C)C,"viability, T/C",compound 0.00316 µM,103% (2×) and 109% and 105%
same,"viability, T/C",compound 0.01 µM,99.4% [middle of 4 runs]
same,"viability, T/C",compound 0.0316 µM,107% [middle of 4 runs]
same,"viability, T/C",compound 0.1 µM,99% [middle of 4 runs]
same,"viability, T/C",compound 0.316 µM,105% [middle of 4 runs]
same,"viability, T/C",compound 1 µM,105% [middle of 4 runs]
same,IC50,curve of compound,> 1000 nM
